Experimental data from patent US20230077362A1 (CORTEVA AGRISCIENCE LLC, priority 2019, published 2023).
Read-outs that look alike come from different tables or passages of the source.

Experiments:
Assay type in all cases: in vivo
[1] = test system: Cabbage Looper (Trichoplusia ni) ("CL"), second instar larvae; assay: Bioassay on cabbage looper (CL), 128-well diet tray assay; details: Trichoplusia ni
Summary of the method: (§1)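 Second-instar larvae on diet in 128-well trays, covered and held at 25° C, 14:10 light-dark, for five to seven days. Percent mortality scored per well and averaged over eight wells; activity reported as a rating category.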

[2] = test system: Cabbage Looper (Trichoplusia ni) ("CL"); assay: Bioassay on Cabbage Looper (CL), Example D, procedure of Example A; details: read-out: CL % Control (or Mortality) Rating
Procedure: (§2) Example D: Bioassays on Cabbage Looper (Trichoplusia ni) (“CL”) and Diamondback Moth (Plutella xylostella) (“DBM”)
(§3) Certain molecules disclosed in this document were tested against CL and DBM (diamondback moth, Plutella xylostella) using procedures described above for BAW and CL (Example A). The results are reported as in the “CL & DBM Rating Table” at concentrations of 0.0005 and 0.00005 ppm, respectively, and are given Table D.

[3] = test system: Diamondback Moth (Plutella xylostella) ("DBM"); assay: Bioassay on Diamondback Moth (DBM), Example D, procedure of Example A; details: 0.00005 ppm, read-out: DBM % Control (or Mortality) Rating
Procedure: as §2, §3

[4] = test system: Green Peach Aphid ("GPA") (Myzus persicae), wingless adult and nymph stages; assay: Bioassay on green peach aphid (GPA), foliar spray on infested cabbage seedlings; details: Myzus persicae, foliar, 72 h
Summary of the method: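 Values are corrected % control, 100*(X−Y)/X, from live aphid counts per plant under a microscope, treated versus solvent-check plants. Four infested seedlings (20-50 GPA each) per treatment were sprayed to runoff and kept three days near 25° C at ambient RH.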

[5] = test system: Beet Armyworm (Spodoptera exigua) ("BAW"), second instar larvae; assay: Bioassay on beet armyworm (BAW), 128-well diet tray assay; details: Spodoptera exigua
Summary of the method: as §1

[6] = test system: Yellow Fever Mosquito "YFM" (Aedes aegypti), about 1 day-old larvae; assay: Bioassay on yellow fever mosquito (YFM), 96-well plate larval assay; details: for YFM (Biological Results, rating): Yellow Fever Mosquito (Aedes aegypti) larvae, scored on mortality after 3 days, C = Not Tested; for YFM rating: Table ABC, species YFM, mortality scored after 3 days, C = not tested, D = no activity noticed
Procedure: Example C: Bioassays on Yellow Fever Mosquito “YFM” (Aedes aegypti)
Certain molecules disclosed in this document were tested against YFM using procedures described in the following paragraph. In the reporting of the results, the “YFM Rating Table” was used (See Table Section).
Master plates containing 400 μg of a molecule dissolved in 100 μL of dimethyl sulfoxide (DMSO) (equivalent to a 4000 ppm solution) are used. A master plate of assembled molecules contains 15 μL per well. To this plate, 135 μL of a 90:10 water:acetone mixture is added to each well. A robot (Biomek® NXP Laboratory Automation Workstation) is programmed to dispense 15 μL aspirations from the master plate into an empty 96-well shallow plate (“daughter” plate). There are 6 reps (“daughter” plates) created per master. The created daughter plates are then immediately infested with YFM larvae.
The day before plates are to be treated, mosquito eggs are placed in Millipore water containing liver powder to begin hatching (4 g. into 400 mL). After the daughter plates are created using the robot, they are infested with 220 μL of the liver powder/larval mosquito mixture (about 1 day-old larvae). After plates are infested with mosquito larvae, a non-evaporative lid is used to cover the plate to reduce drying. Plates are held at room temperature for 3 days prior to grading. After 3 days, each well is observed and scored based on mortality.

[7] = read-out: CL (Biological Results, rating)
[8] = read-out: GPA (Biological Results, rating)
[9] = read-out: BAW (Biological Results, rating)

Structure (SMILES) | pest or weed control at 50 µg/cm2 [1, 7] [%] | mortality at 0.0005 ppm [2] [%] | mortality at 5e-05 ppm [3] [%] | pest or weed control at 200 µg/mL [4, 8] [%] | pest or weed control at 50 µg/cm2 [5, 9] [%] | YFM (Biological Results, rating) [6] | pest or weed control at 50 µg/cm2 ([1]; read-out: CL rating) [%] | YFM rating [6] | pest or weed control at 200 µg/mL ([4]; read-out: GPA rating) [%] | pest or weed control at 50 µg/cm2 ([5]; read-out: BAW rating) [%]
Cc1ccc(C)c(N2C(=O)CS/C2=N\C(=O)Nc2ccc(-c3ncn(-c4ccc(OC(F)(F)F)cc4)n3)cc2)c1 [Compound C2] | 50 to 100 | 0 to 15 | 0 to 15 | 0 to 80 | 50 to 100 |  |  |  |  | 
O=C(/N=C1\SCC(=O)N1c1ccccc1C(F)F)NCCc1ccc(-c2ncn(-c3ccc(OC(F)(F)F)cc3)n2)cc1 [Compound H11] | 50 to 100 |  |  | 0 to 80 | 50 to 100 | A (80-100) |  |  |  | 
O=C(/N=C1\SCC(=O)N1c1ccccc1COCc1ccccc1)Nc1ccc(-c2ncn(-c3ccc(OC(F)(F)F)cc3)n2)cc1F [Compound J742, (Z)-1-(3-(2-((Benzyloxy)methyl)phenyl)-4-oxothiazolidin-2-ylidene)-3-(2-fluoro-4-(1-(4-(trifluoromethoxy)phenyl)-1H-1,2,4-triazol-3-yl)phenyl)urea] |  |  |  |  |  |  | 50 to 100 | A (80-100) | 0 to 80 | 50 to 100
Cc1ccc(C(F)(F)F)c(N2C(=O)CS/C2=N\C(=O)NCC(F)c2ccc(-c3ncn(-c4ccc(OC(F)(F)F)cc4)n3)cc2)c1 (stereo not drawn) [Compound H2] | 50 to 100 | 51 to 100 | 51 to 100 | 80 to 100 | 50 to 100 |  |  |  |  | 
Cc1ccc(COCc2ccccc2)c(N2C(=O)CS/C2=N\C(=O)Nc2ccc(-c3ncn(-c4ccc(C(F)(F)F)cc4)n3)cc2F)c1 [Compound J747, (Z)-1-(3-(2-((Benzyloxy)methyl)-5-methylphenyl)-4-oxothiazolidin-2-ylidene)-3-(2-fluoro-4-(1-(4-(trifluoromethyl)phenyl)-1H-1,2,4-triazol-3-yl)phenyl)urea] |  |  |  |  |  |  | 50 to 100 | A (80-100) | 0 to 80 | 50 to 100
Cc1ccc(C(F)(F)F)c(N2C(=O)CS/C2=N\C(=O)NCCc2ccc(-c3ncn(-c4ccc(OC(F)(F)F)cc4)n3)cc2)c1 [Compound H1] | 50 to 100 | 16 to 50 | 16 to 50 | 0 to 80 | 50 to 100 | A (80-100) |  |  |  | 
Cc1cc(-c2cn(-c3ccc(C(F)(F)F)cn3)cn2)ccc1NC(=O)/N=C1\SCC(=O)N1c1cc(N(C)C)ccc1C(C)C [Compound J510, (Z)-1-(3-(5-(Dimethylamino)-2-isopropylphenyl)-4-oxothiazolidin-2-ylidene)-3-(2-methyl-4-(1-(5-(trifluoromethyl)pyridin-2-yl)-1H-imidazol-4-yl)phenyl)urea] |  |  |  |  |  |  | 50 to 100 | A (80-100) | 0 to 80 | 50 to 100
CC(F)(F)c1ccccc1N1C(=O)CS/C1=N\C(=O)NCCc1ccc(-c2ncn(-c3ccc(OC(F)(F)F)cc3)n2)cc1 [Compound H21] | 50 to 100 |  |  | 0 to 80 | 50 to 100 | A (80-100) |  |  |  | 
Cc1cc(-c2ncn(-c3ccc(OC(F)(F)F)cc3)n2)ccc1NC(=O)/N=C1\SCC(=O)N1c1ccccc1COCC(F)(F)F [Compound J653, (Z)-1-(2-Methyl-4-(1-(4-(trifluoromethoxy)phenyl)-1H-1,2,4-triazol-3-yl)phenyl)-3-(4-oxo-3-(2-((2,2,2-trifluoroethoxy)methyl)phenyl)thiazolidin-2-ylidene)urea] |  |  |  |  |  |  | 50 to 100 | A (80-100) | 0 to 80 | 50 to 100
Cc1ccc(C(F)(F)F)c(N2C(=O)CS/C2=N\C(=O)Nc2ccc(-c3ncn(-c4ccc(OC(F)(F)F)cc4)n3)cc2)c1 [Compound H20] | 50 to 100 | 16 to 50 | 51 to 100 | 0 to 80 | 50 to 100 |  |  |  |  | 
O=C(/N=C1\SCC(=O)N1c1cc(Cl)ccc1COCc1ccccc1)Nc1ccc(-c2ncn(-c3ccc(OC(F)(F)F)cc3)n2)cc1F [Compound J719, (Z)-1-(3-(2-((Benzyloxy)methyl)-5-chlorophenyl)-4-oxothiazolidin-2-ylidene)-3-(2-fluoro-4-(1-(4-(trifluoromethoxy)phenyl)-1H-1,2,4-triazol-3-yl)phenyl)urea] |  |  |  |  |  |  | 50 to 100 | A (80-100) | 0 to 80 | 50 to 100
Cc1ccc(COCC(F)(F)F)c(N2C(=O)CS/C2=N\C(=O)Nc2ccc(-c3ncn(-c4ccn(CC(F)(F)F)c(=O)c4)n3)cc2F)c1 [Compound J751, (Z)-1-(2-Fluoro-4-(1-(2-oxo-1-(2,2,2-trifluoroethyl)-1,2-dihydropyridin-4-yl)-1H-1,2,4-triazol-3-yl)phenyl)-3-(3-(5-methyl-2-((2,2,2-trifluoroethoxy)methyl)phenyl)-4-oxothiazolidin-2-ylidene)urea] |  |  |  |  |  |  | 50 to 100 | A (80-100) | 0 to 80 | 50 to 100
Cc1ccc(C(F)(F)F)c(N2C(=O)CS/C2=N\C(=O)N[C@H](C)Cc2ccc(-c3ncn(-c4ccc(OC(F)(F)F)cc4)n3)cc2)c1 [Compound H3] | 50 to 100 |  |  | 80 to 100 | 50 to 100 | A (80-100) |  |  |  | 
